ChEMBL document CHEMBL3779807, “Synthesis and structure-activity relationship of α-keto amides as enterovirus 71 3C protease inhibitors” (Bioorg Med Chem Lett, 2016)

Columns and labels:
[1] = Inhibition of EV71 3C protease using NMA-IEALFQGPPK(DNP)FR as substrate preincubated for 30 mins followed by addition of substrate measured after 2 hrs by FRET assay; set-up: species or system Enterovirus A71
Enterovirus A71 = test: Antiviral activity against EV71 pseudotype virus infected in RD cells after 24 hrs by Bright-Glo luciferase assay; type: functional, organism-based; settings: Enterovirus A
[2] = Cytotoxicity against human RD cells assessed viable cells after 24 hrs by WST-1 assay; type: cell-based

SMILES	IC50 [1] [µM]	EC50 (Enterovirus A71) [µM]	CC50 at 24 h [2] [µM]
O=C(/C=C/c1ccccc1)N[C@@H](Cc1ccccc1)C(=O)N[C@@H](C[C@@H]1CCNC1=O)C(=O)C(=O)Nc1ccccc1	> 20	> 20	> 100
CCCCNC(=O)C(=O)[C@H](C[C@@H]1CCCNC1=O)NC(=O)[C@H](Cc1ccccc1)NC(=O)/C=C/c1ccccc1	8.21	11.6	> 100
Cc1ccc(NC(=O)C(=O)[C@H](C[C@@H]2CCCNC2=O)NC(=O)[C@H](Cc2ccccc2)NC(=O)/C=C/c2ccccc2)cc1	> 20	> 20	> 100
CC(C)(C)OC(=O)N[C@@H](Cc1ccc(F)cc1)C(=O)N[C@@H](C[C@@H]1CCCNC1=O)C(=O)C(=O)NC1CC1	1.78	1.68	> 100
CC(C)NC(=O)C(=O)[C@H](C[C@@H]1CCNC1=O)NC(=O)[C@H](Cc1ccccc1)NC(=O)/C=C/c1ccccc1	8.75	6.45	> 100
O=C(/C=C/c1ccccc1)N[C@@H](Cc1ccccc1)C(=O)N[C@@H](C[C@@H]1CCCNC1=O)C(=O)C(=O)NCc1ccco1	6.3	4.5	> 100
O=C(/C=C/c1ccccc1)N[C@@H](Cc1ccc(F)cc1)C(=O)N[C@@H](C[C@@H]1CCCNC1=O)C(=O)C(=O)NC1CC1	1.52	1.55	> 100
CCCNC(=O)C(=O)[C@H](C[C@@H]1CCCNC1=O)NC(=O)[C@H](Cc1ccc(F)cc1)NC(=O)/C=C/c1ccccc1	1.88	1.08	> 100
CCCCNC(=O)C(=O)[C@H](C[C@@H]1CCNC1=O)NC(=O)[C@H](Cc1ccccc1)NC(=O)/C=C/c1ccccc1	17.6	15.5	> 100
CC(C)NC(=O)C(=O)[C@H](C[C@@H]1CCCNC1=O)NC(=O)[C@H](Cc1ccc(F)cc1)NC(=O)/C=C/c1ccccc1	1.32	1.12	> 100
O=C(/C=C/c1ccccc1)N[C@@H](Cc1ccccc1)C(=O)N[C@@H](C[C@@H]1CCCNC1=O)C(=O)C(=O)Nc1ccccc1	> 20	> 20	> 100
CC(C)(C)NC(=O)C(=O)[C@H](C[C@@H]1CCCNC1=O)NC(=O)[C@H](Cc1ccccc1)NC(=O)/C=C/c1ccccc1	> 20	> 20	> 100
O=C(/C=C/c1ccccc1)NC(Cc1ccccc1)C(=O)NC(CC1CCNC1=O)C(=O)C(=O)NCc1ccccc1 (single isomer, unassigned)	> 20	> 20	> 100
CCCCCNC(=O)C(=O)[C@H](C[C@@H]1CCCNC1=O)NC(=O)[C@H](Cc1ccccc1)NC(=O)/C=C/c1ccccc1	> 20	> 20	> 100
CCCNC(=O)C(=O)[C@H](C[C@@H]1CCCNC1=O)NC(=O)[C@H](Cc1ccccc1)NC(=O)/C=C/c1ccccc1	6.22	4.59	> 100
O=C(/C=C/c1ccccc1)N[C@@H](Cc1ccccc1)C(=O)N[C@@H](C[C@@H]1CCCNC1=O)C(=O)C(=O)NC1CCCCC1	4.86	2.63	> 100
CC(C)NC(=O)C(=O)[C@H](C[C@@H]1CCCNC1=O)NC(=O)[C@H](Cc1ccccc1)NC(=O)/C=C/c1ccccc1	1.34	1.66	> 100
O=C(/C=C/c1ccccc1)N[C@@H](Cc1ccccc1)C(=O)N[C@@H](C[C@@H]1CCCNC1=O)C(=O)C(=O)NCc1ccccc1	7.83	5.42	> 100
CCCCCCCCCCCCNC(=O)C(=O)[C@H](C[C@@H]1CCCNC1=O)NC(=O)[C@H](Cc1ccccc1)NC(=O)/C=C/c1ccccc1	> 20	> 20	> 100
O=C(/C=C/c1ccccc1)N[C@@H](Cc1ccccc1)C(=O)N[C@@H](C[C@@H]1CCNC1=O)C(=O)C(=O)NC1CCCCC1	12.7	8.12	> 100
O=C(/C=C/c1ccccc1)N[C@@H](Cc1ccc(F)cc1)C(=O)N[C@@H](C[C@@H]1CCCNC1=O)C(=O)C(=O)NC1CCCCC1	3.71	2.78	> 100
CC(C)CNC(=O)C(=O)[C@H](C[C@@H]1CCCNC1=O)NC(=O)[C@H](Cc1ccccc1)NC(=O)/C=C/c1ccccc1	5.07	11	> 100
CNC(=O)C(=O)[C@H](C[C@@H]1CCCNC1=O)NC(=O)[C@H](Cc1ccccc1)NC(=O)/C=C/c1ccccc1	4.08	9.59	> 100
O=C(/C=C/c1ccccc1)NC(Cc1ccccc1)C(=O)NC(CC1CCCNC1=O)C(=O)C(=O)Nc1ccc([N+](=O)[O-])cc1 (single isomer, unassigned)	> 20	> 20	> 100
O=C(/C=C/c1ccccc1)N[C@@H](Cc1ccccc1)C(=O)N[C@@H](C[C@@H]1CCCNC1=O)C(=O)C(=O)NC1CC1	3.32	3.57	> 100
CC(C)NC(=O)C(=O)[C@H](CC1CCCNC1=O)NC(=O)[C@H](Cc1ccc(F)cc1)NC(=O)OCc1ccccc1 (single isomer, unassigned)	1.42	1.32	> 100
CCCCCCNC(=O)C(=O)[C@H](C[C@@H]1CCCNC1=O)NC(=O)[C@H](Cc1ccccc1)NC(=O)/C=C/c1ccccc1	> 20	> 20	> 100
